Square brackets hold non-standard residues; d marks the D form. Ends that are not written are not given here.
Test system: rat hepatic stellate cells (HSCs)
Test: siRNA introduction into rat hepatic stellate cells with targeting molecule/LipoTrust/siRNA lipoplex; HSP47 expression by quantitative PCR
Assay type: cell-based
Conditions: siRNA 11.5 μg/ml; for expression rate of HSP47 gene: FIG. 5; for expression rate of HSP47 gene / extent of the suppression of the expression of HSP47 gene, compared with RBP Loop 1: peptide 7.7 μM; for HSP47 expression rate (%): FIG. 2, HSP47 relative to GAPDH, untreated cell = 100; for extent of the suppression of the expression of HSP47 gene, compared with RBP Loop 1: FIG. 3; for suppression of HSP47 expression: peptide stock solutions 1.1-10 mM
Procedure: LipoTrust™ SR was dissolved in nuclease-free water (Ambion, Cat. No. AM9937) at a concentration of 1 mM of the cationic lipid. 10 μl of this liposome solution was placed in an Eppendorf tube, to which added 1 μl of the stock solution of each peptide above dissolved in DMSO at predetermined concentration (1.1 mM, 1.25 mM, 2.5 mM, 3.4 mM, 5 mM or 10 mM for experiments whose results are shown in FIG. 1; 90 mM for experiments whose results are shown in FIG. 2) or the stock solution of vitamin A above, and the mixture was vortexed for 15 seconds. To this mixture, 1.5 μl of the above siRNA stock solution was added and mixed, then 17.5 μl of 5% glucose aq. solution (OTSUKA GLUCOSE INJECTION 5%, Otsuka Pharmaceutical Co., Ltd.) was added and mixed. Thus obtained solution of liposome-peptide (or vitamin A)-siRNA complex (lipoplex) was left still under shade for 15 min at room temperature. Also, a mixture of the peptide and siRNA without LipoTrust™ SR was prepared as a control.
Two days before the siRNA introduction, hepatic stellate cells (HSCs) prepared from a rat liver according to the method of Schaefer et al. (Schaefer et al., Hepatology. 1987 July-August; 7(4):680-7) were inoculated uniformly onto a 6-well plate at a density of 0.2×10^5/well and cultured in a Dulbecco's modified Eagle's medium (D-MEM, Sigma Aldrich, Cat. No. D6546, hereinbelow referred to as “culture medium”) containing 10% fetal bovine serum (Thermo HyClone, Cat. No. SH30070.03), 2% L-glutamine (Sigma Aldrich, Cat. No. G7513) and 1% penicillin-streptomycin (Sigma Aldrich, Cat. No. G1146).
The culture medium was removed, 900 μl of fresh culture medium was added to each well, and then this was incubated for at least 30 minutes at 37° C. To 30 μl of each lipoplex solution obtained in Example 1, 100 μl of 5% glucose solution was added to make a mixed solution of 130 μl, and 100 μl of said mixture was added to corresponding well. The final concentration of the siRNA at this time was 11.5 μg/ml. After incubating at 37° C., in 5% CO2 for 30 minutes, the medium comprising the lipoplex solution was removed and substituted with the culture medium, and this was cultured under normal condition for 24-36 hours.
Total RNA extraction of each sample was carried out using RNeasy Mini kit (Qiagen). Firstly, the culture medium was removed, and 350 μl/well each of RLT/2ME solution which was prepared in advance by mixing RLT solution attached to RNeasy Mini kit with 1% (v/v) 2-mercaptoethanol (2ME, Wako) was dispensed into each well. Total volume of the cell lysate was homogenized with QIAshredder (Qiagen), centrifuged at 4° C. and 12000 rpm for 2 min, and then total RNA was extracted according to the manufacturer's instruction. The obtained RNA was quantified using NanoDrop 2000 (Thermo Fisher Scientific), and cDNA was synthesized by RT-PCR. 20 μl total volume/tube of the reaction solution consisting of 4 μl of the reverse transcriptase mix (Super Script VILO Master Mix, Invitrogen, 11755-250) and 16 μl of total RNA of each sample (containing 100-500 ng or more RNA) was reacted at 25° C. for 5 min, at 42° C. for 60 min, then at 85° C. for 5 min, respectively, and subsequently stored at 4° C.
The suppression of HSP47 expression was analyzed by quantitative PCR. As a standard template, the untreated cell sample was used in 10-fold dilution series (the stock solution, 10- and 100-fold dilutions). To each well of MicroAmp (Optical 96-well Reaction Plate, Applied Biosystems, Cat. No. 4306737) added a 48 μl premix consisting of 22 μl of sterile water, 25 μl of Power SYBR® Green (Applied Biosystems, Cat. No. 4367669) and 1 μl of primer mix. The primer mix comprises 50 μM each of the primer set against HSP47 or GAPDH, an internal standard gene, as shown below:
To the corresponding well, 2 μl of the template cDNA obtained from each sample was added to make a total volume of 50 μl. […]

[1] = each peptide at final concentration 69.2 μM, smaller value = greater suppression

AKFQKLEPGDDLNI (Scramble peptide) [scrambled peptide, negative control, reference compound]
expression rate of HSP47 gene: almost the same as the result in the group using no targeting molecule

KKDPEGLFLQDNI (Peptide No. 10-3)
HSP47 expression rate (%) [1]: 31.2%

AKKDPEGLFLQDN (Peptide No. 10-1)
HSP47 expression rate (%) [1]: 39.3%

KDPEGLFLQDNI (Peptide No. 10-4)
HSP47 expression rate (%) [1]: 42.9%

KDPEGLFLQD (Peptide No. 10)
HSP47 expression rate (%) [1]: 57.2%

AKDDPEGLFLQKNI (Variant peptide D3K12) [Mutant peptide 3]
extent of the suppression of the expression of HSP47 gene, compared with RBP Loop 1: lower

d-INDQLFLGEPDKKA-amide ([dI][dN][dD][dQ][dL][dF][dL]G[dE][dP][dD][dK][dK][dA]-NH2; N-terminus assumed; SMILES CC[C@@H](C)[C@@H](N)C(=O)N[C@H](CC(N)=O)C(=O)N[C@H](CC(=O)O)C(=O)N[C@H](CCC(N)=O)C(=O)N[C@H](CC(C)C)C(=O)N[C@H](Cc1ccccc1)C(=O)N[C@H](CC(C)C)C(=O)NCC(=O)N[C@H](CCC(=O)O)C(=O)N1CCC[C@@H]1C(=O)N[C@H](CC(=O)O)C(=O)N[C@H](CCCCN)C(=O)N[C@H](CCCCN)C(=O)N[C@H](C)C(N)=O) [retro-inverso peptide]
targetability (suppression of HSP47) (FIG. 4, peptide 23.1 μM): almost the same targetability as that of RBP Loop 1

CC1=C(/C=C/C(C)=C/C=C/C(C)=C/CO)C(C)(C)CCC1 [VA, all-trans-retinol, reference compound]
HSP47 expression rate (%) (VA at final concentration 7.7 μM): 46.8%

AKKDPEGLFLQD (Peptide No. 10-2)
HSP47 expression rate (%) [1]: 48.5%

KKDPEGLFLQD (Peptide No. 10-5)
HSP47 expression rate (%) [1]: 40.4%

AKEDPKGLFLQDNI (Variant peptide E3K6) [Mutant peptide 1]
extent of the suppression of the expression of HSP47 gene, compared with RBP Loop 1: lower

AKKDPEGLFLQDNI (Synthetic RBP loop 1)
suppression of HSP47 expression (FIG. 1): concentration-dependent suppression of HSP47 expression
suppression rate by the complex, compared with vitamin A (FIG. 1): comparable to that by vitamin A
HSP47 expression rate (%) [1]: 49.0%
expression rate of HSP47 gene: significantly decreased

KDPEGLFLQDN (Peptide No. 10-6)
HSP47 expression rate (%) [1]: 44.3%

AKGRVRLLNNWDVCA (Synthetic RBP loop 2)
suppression of HSP47 expression (FIG. 1): concentration-dependent suppression of HSP47 expression

AKDKPEGLFLQDNI (Variant peptide D3K4) [Mutant peptide 2]
extent of the suppression of the expression of HSP47 gene, compared with RBP Loop 1: lower

— patent US9976142B2, “Targeting molecule and a use thereof” (Nitto Denko Corporation, priority 2014, dated 2018)
